Measurements published in US9682938B2, “Pyrazolone derivatives as nitroxyl donors” (Cardioxyl Pharmaceuticals, Inc., priority 2014, dated 2017).

Tests used:
[1] = In vitro plasma stability, rat plasma; assay type: in vitro ADME; details: male, pH 7.4, 5 μM, 37° C., sampling 0-360 minutes, read-out: T1/2 Rat
How it was run: (§1)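 Pooled plasma at pH 7.4 with sodium heparin or citrate anticoagulant; compound at 5 μM, 37° C with shaking, triplicate samples at 0–360 min. Quenched in acetonitrile/1% formic acid with internal standard; LC-MS/MS peak-area ratios without standard curve; T1/2 from percent remaining.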

normal beagle dogs = assay: Pharmacodynamic activity: systolic blood pressure decrease in telemetered dogs after oral dose; assay type: in vivo, dog; details: beagle dogs (n=3), single oral dose 30 mg/kg in PEG300, first 2 hr post-dose relative to baseline SBP
Experimental: The effect of certain compounds from Table 1 on blood pressure in freely moving telemetered normal beagle dogs (n=3) after single oral doses was evaluated. The animals were surgically implanted with a pressure transducer equipped telemetry transmitter. The transmitter assembly was secured internally and a fluid-filled catheter was placed into the abdominal aorta to allow for collection of cardiovascular data. To evaluate cardiovascular effects, 3 dogs were given single oral doses of a compound from Table 1 (100% PEG300 in gelatin capsules) at a concentration of 100 mg/mL and at doses of 30 mg/kg. Systemic blood pressure and heart rate were evaluated continuously for 2 hr before and for 24 hr after dosing (results not shown). To compare the pharmacodynamic activity for all tested compounds, the mean systolic blood pressure (SBP) decrease during the first 2 hr post-dose was determined relative to the baseline SBP (30-120 min pre-dose) (Table 6).

[2] = In vitro plasma stability, dog plasma; assay type: in vitro ADME; details: male, pH 7.4, 5 μM, 37° C., sampling 0-360 minutes, read-out: T1/2 Dog
How it was run: as §1

[3] = In vitro plasma stability, human plasma; assay type: in vitro ADME; details: male, pH 7.4, 5 μM, 37° C., sampling 0-360 minutes, read-out: T1/2 Human
How it was run: as §1

**Q.** What does the source list for `CN1N=C(c2ccc(C(F)(F)F)cc2)C(C)(NO)C1=O` (centres unmarked) [Compound 4, 4-(hydroxyamino)-2,4-dimethyl-5-(4-(trifluoromethyl)phenyl)-2,4-dihydro-3H-pyrazol-3-one]?
**A.** half-life at 5 μM [1]: 38 min; Mean SBP decrease (normal beagle dogs): 6 mmHg; half-life at 5 μM [2]: 69 min; half-life at 5 μM [3]: 31 min

**Q.** Which half-life at 5 μM [1] does the source give for `CN1N=C(c2ccc(S(=O)(=O)C(F)(F)F)cc2)C(C)(NO)C1=O` (centres unmarked) [Compound 34, 4-(hydroxyamino)-2,4-dimethyl-5-(4-((trifluoromethyl)sulfonyl)phenyl)-2,4-dihydro-3H-pyrazol-3-one] here?
**A.** 28 min

**Q.** What about the “Mean SBP decrease” value (normal beagle dogs) of the same compound?
**A.** 18 mmHg

**Q.** And the half-life at 5 μM [2]?
**A.** 25 min

**Q.** And the half-life at 5 μM [3]?
**A.** 36 min

**Q.** Which half-life at 5 μM [1] does the source give for `CN1N=C(c2ccc(S(C)(=O)=O)c(F)c2)C(C)(NO)C1=O` (centres unmarked) [Compound 40, 5-(3-fluoro-4-(methylsulfonyl)phenyl)-4-(hydroxyamino)-2,4-dimethyl-2,4-dihydro-3H-pyrazol-3-one] here?
**A.** 39 min

**Q.** And the “Mean SBP decrease” value (normal beagle dogs)?
**A.** 15 mmHg

**Q.** And the half-life at 5 μM [2]?
**A.** 48 min

**Q.** And the half-life at 5 μM [3]?
**A.** 39 min

**Q.** What does the source list for `CN1N=C(c2cccc(S(C)(=O)=O)c2)C(C)(NO)C1=O` (centres unmarked) [Compound 48, 4-(hydroxyamino)-2,4-dimethyl-5-(3-(methylsulfonyl)phenyl)-2,4-dihydro-3H-pyrazol-3-one]?
**A.** half-life at 5 μM [1]: 53 min; Mean SBP decrease (normal beagle dogs): 17 mmHg; half-life at 5 μM [2]: 49 min; half-life at 5 μM [3]: 49 min

**Q.** For `CN1N=C(c2ccc(S(=O)(=O)N(C)C)cc2)C(C)(NO)C1=O` (centres unmarked) [Compound 49, 4-(4-(hydroxyamino)-1,4-dimethyl-5-oxo-4,5-dihydro-1H-pyrazol-3-yl)-N,N-dimethylbenzenesulfonamide], which half-life at 5 μM [1] is on record?
**A.** 70 min

**Q.** And the “Mean SBP decrease” value (normal beagle dogs)?
**A.** 18 mmHg

**Q.** What about the half-life at 5 μM [2] of the same compound?
**A.** 39 min

**Q.** What about the half-life at 5 μM [3] of the same compound?
**A.** 52 min

**Q.** Which results are given for `CN1N=C(c2ccc(S(C)(=N)=O)cc2)C(C)(NO)C1=O` (centres unmarked) [Compound 75, 4-(Hydroxyamino)-3-{4-[imino(methyl)oxo-λ^6-sulfanyl]phenyl}-1,4-dimethyl-4,5-dihydro-1H-pyrazol-5-one]?
**A.** half-life at 5 μM [1]: 113 min; Mean SBP decrease (normal beagle dogs): 12 mmHg; half-life at 5 μM [2]: 47 min; half-life at 5 μM [3]: 49 min

**Q.** Which results are given for `CC(C)S(=O)(=O)c1ccc(C2=NN(C)C(=O)C2(C)NO)cc1` (centres unmarked) [Compound 78, 4-(Hydroxyamino)-1,4-dimethyl-3-[4-(propane-2-sulfonyl)phenyl]-4,5-dihydro-1H-pyrazol-5-one]?
**A.** half-life at 5 μM [1]: 75 min; Mean SBP decrease (normal beagle dogs): 27 mmHg; half-life at 5 μM [2]: 42 min; half-life at 5 μM [3]: 43 min

**Q.** Which half-life at 5 μM [1] does the source give for `CN1N=C(c2ccc(S(=O)(=O)N3CCOCC3)cc2)C(C)(NO)C1=O` (centres unmarked) [Compound 80, 4-(Hydroxyamino)-1,4-dimethyl-3-[4-(morpholine-4-sulfonyl)phenyl]-4,5-dihydro-1H-pyrazol-5-one] here?
**A.** 80 min

**Q.** What about the “Mean SBP decrease” value (normal beagle dogs) of the same compound?
**A.** 13 mmHg

**Q.** And the half-life at 5 μM [2]?
**A.** 49 min

**Q.** What about the half-life at 5 μM [3] of the same compound?
**A.** 46 min

**Q.** With `CN(C)C(=O)c1ccc(C2=NN(C)C(=O)C2(C)NO)cc1` (centres unmarked) [Compound 84, 4-[4-(Hydroxyamino)-1,4-dimethyl-5-oxo-4,5-dihydro-1H-pyrazol-3-yl]-N,N-dimethylbenzamide] as the compound, how does the half-life at 5 μM [1] read?
**A.** 161 min

**Q.** What about the “Mean SBP decrease” value (normal beagle dogs) of the same compound?
**A.** 15 mmHg

**Q.** And the half-life at 5 μM [2]?
**A.** 100 min

**Q.** And the half-life at 5 μM [3]?
**A.** 89 min

**Q.** Which half-life at 5 μM [1] does the source give for `CCO/N=C(\C)C1(NO)C(=O)N(C)N=C1C(C)(C)C` (centres unmarked) [Compound 112, 3-tert-Butyl-4-[1-(ethoxyimino)ethyl]-4-(hydroxyamino)-1-methyl-4,5-dihydro-1H-pyrazol-5-one] here?
**A.** 19 min

**Q.** What about the “Mean SBP decrease” value (normal beagle dogs) of the same compound?
**A.** 21 mmHg

**Q.** And the half-life at 5 μM [2]?
**A.** 21 min

**Q.** What about the half-life at 5 μM [3] of the same compound?
**A.** 10 min

**Q.** With `CN1N=C(C(C)(C)C)C(NO)(c2ccccc2)C1=O` (centres unmarked) [Compound 113, 3-tert-Butyl-4-(hydroxyamino)-1-methyl-4-phenyl-4,5-dihydro-1H-pyrazol-5-one] as the compound, how does the half-life at 5 μM [1] read?
**A.** 53 min

**Q.** What about the “Mean SBP decrease” value (normal beagle dogs) of the same compound?
**A.** 18 mmHg

**Q.** What about the half-life at 5 μM [2] of the same compound?
**A.** 75 min

**Q.** What about the half-life at 5 μM [3] of the same compound?
**A.** 30 min

**Q.** With `CO/N=C(\C)C1(NO)C(=O)N(C)N=C1c1ccc(S(=O)(=O)N(C)C)cc1` (centres unmarked) [Compound 121, 4-[4-(Hydroxyamino)-4-[1-(methoxyimino)ethyl]-1-methyl-5-oxo-4,5-dihydro-1H-pyrazol-3-yl]-N,N-dimethylbenzene-1-sulfonamide] as the compound, how does the half-life at 5 μM [1] read?
**A.** 8 min

**Q.** And the half-life at 5 μM [2]?
**A.** 4 min

**Q.** And the half-life at 5 μM [3]?
**A.** 2 min

**Q.** Which results are given for `CN1N=C(C(C)(C)C)C(NO)(c2ccc(S(=O)(=O)N(C)C)cc2)C1=O` (centres unmarked) [Compound 122, 4-[3-tert-Butyl-4-(hydroxyamino)-1-methyl-5-oxo-4,5-dihydro-1H-pyrazol-4-yl]-N,N-dimethylbenzene-1-sulfonamide]?
**A.** half-life at 5 μM [1]: 34 min; half-life at 5 μM [2]: 35 min; half-life at 5 μM [3]: 31 min

**Q.** What does the source list for `CO/N=C(\C)C1(NO)C(=O)N(C)N=C1c1ccc(C(=O)N(C)C)cc1` (centres unmarked) [Compound 123, 4-[4-(Hydroxyamino)-4-[1-(methoxyimino)ethyl]-1-methyl-5-oxo-4,5-dihydro-1H-pyrazol-3-yl]-N,N-dimethylbenzamide]?
**A.** half-life at 5 μM [1]: 11 min; half-life at 5 μM [2]: 6 min; half-life at 5 μM [3]: 6 min

**Q.** What does the source list for `CN(C)C(=O)c1ccc(C2(NO)C(=O)N(C)N=C2C(C)(C)C)cc1` (centres unmarked) [Compound 124, 4-[3-tert-Butyl-4-(hydroxyamino)-1-methyl-5-oxo-4,5-dihydro-1H-pyrazol-4-yl]-N,N-dimethylbenzamide]?
**A.** half-life at 5 μM [1]: 44 min; half-life at 5 μM [2]: 45 min; half-life at 5 μM [3]: 31 min

**Q.** For `CCOC1=NN(C)C(=O)C1(NO)/C(C)=N/OCc1ccccc1` (centres unmarked) [Compound 125, 4-[1-[(Benzyloxy)imino]ethyl]-3-ethoxy-4-(hydroxyamino)-1-methyl-4,5-dihydro-1H-pyrazol-5-one], which half-life at 5 μM [1] is on record?
**A.** 15 min

**Q.** And the half-life at 5 μM [2]?
**A.** 13 min

**Q.** And the half-life at 5 μM [3]?
**A.** 10 min

**Q.** Which half-life at 5 μM [1] does the source give for `CCOC1=NN(C)C(=O)C1(NO)/C(C)=N/OC` (centres unmarked) [Compound 126, 3-Ethoxy-4-(hydroxyamino)-4-[1-(methoxyimino)ethyl]-1-methyl-4,5-dihydro-1H-pyrazol-5-one] here?
**A.** 18 min

**Q.** What about the half-life at 5 μM [2] of the same compound?
**A.** 30 min

**Q.** And the half-life at 5 μM [3]?
**A.** 18 min

**Q.** For `CCOC1=NN(c2ccccc2)C(=O)C1(C)NO` (centres unmarked) [Compound 127, 3-Ethoxy-4-(hydroxyamino)-4-methyl-1-phenyl-4,5-dihydro-1H-pyrazol-5-one], which half-life at 5 μM [1] is on record?
**A.** > 480 min

**Q.** And the half-life at 5 μM [2]?
**A.** > 480 min

**Q.** What about the half-life at 5 μM [3] of the same compound?
**A.** > 480 min

**Q.** For `CO/N=C(\C)C1(NO)C(=O)N(c2ccccc2)N=C1[S+]([O-])c1ccccc1` (centres unmarked) [Compound 130, 3-(Benzenesulfinyl)-4-(hydroxyamino)4[1-(methoxyimino)ethyl]-1-phenyl-4,5-dihydro1H-pyrazol-5-one], which half-life at 5 μM [1] is on record?
**A.** < 1 min

**Q.** And the half-life at 5 μM [2]?
**A.** < 1 min

**Q.** And the half-life at 5 μM [3]?
**A.** < 1 min

**Q.** What does the source list for `CO/N=C(\C)C1(NO)C(=O)NN=C1C(C)(C)C` (centres unmarked) [Compound 131, 3-tert-Butyl-4-(hydroxyamino)-4-[1-(methoxyimino)ethyl]-4,5-dihydro-1H-pyrazol-5-one]?
**A.** half-life at 5 μM [1]: 24 min; half-life at 5 μM [2]: 7 min; half-life at 5 μM [3]: 15 min

**Q.** Which half-life at 5 μM [1] does the source give for `CC1=NN(C)C(=O)C1(NO)c1noc(-c2ccccc2)n1` (centres unmarked) [Compound 132, 4-(Hydroxyamino)-1,3-dimethyl-4-(5-phenyl-1,2,4-oxadiazol-3-yl)-4,5-dihydro-1H-pyrazol-5-one] here?
**A.** < 1 min

**Q.** What about the half-life at 5 μM [2] of the same compound?
**A.** < 1 min

**Q.** And the half-life at 5 μM [3]?
**A.** < 1 min

**Q.** Which half-life at 5 μM [1] does the source give for `CC1(NO)C(=O)NN=C1c1ccc(S(C)(=O)=O)cc1` (centres unmarked) [Compound 133, 4-(Hydroxyamino)-3-(4-methanesulfonylphenyl)-4-methyl-4,5-dihydro-1H-pyrazol-5-one] here?
**A.** 116 min

**Q.** What about the half-life at 5 μM [2] of the same compound?
**A.** 126 min

**Q.** What about the half-life at 5 μM [3] of the same compound?
**A.** 110 min

**Q.** With `CCO/N=C(\C)C1(NO)C(=O)NN=C1C(C)(C)C` (centres unmarked) [Compound 134, 3-tert-Butyl-4-[1-(ethoxyimino)ethyl]-4-(hydroxyamino)-4,5-dihydro-1H-pyrazol-5-one] as the compound, how does the half-life at 5 μM [1] read?
**A.** 20 min

**Q.** And the half-life at 5 μM [2]?
**A.** 26 min

**Q.** And the half-life at 5 μM [3]?
**A.** 17 min
